This is an account of results in US20260315452A1, “PROTEASE INHIBITORS AND USES THEREOF” (priority 2023, published 2026).

One data set deals with SARS-CoV-2 3CLpro (Severe acute respiratory syndrome coronavirus 2, UniProt P0DTD1). Description: biochemical. As to conditions: inhibition of SARS-CoV-2 3CLpro; 15 nM 3CLpro, 25 μM fluorogenic substrate, 37° C.; read-out: Inhibitory Activity (IC50).
Data set [1] deals with CYP1A2, CYP2C9, CYP2C19, CYP2D6 and CYP3A4. The data set can be described thus: CYP inhibition evaluation in human liver microsomes. The class given is in vitro ADME. As to conditions: CYP1A2, 2C9, 2C19, 2D6, 3A4, up to 50 μM. The protocol:
20 μL of the substrate solutions of CYP1A2, CYP2C9, CYP2C19, CYP2D6 and CYP3A4 were each mixed with […] of the test compounds (final concentrations: 50 μM, 15 μM, 5 μM, 1.5 μM, 0.5 μM, 0.15 μM, 0.05 μM, 0 μM), followed by the addition of 158 μL of the HLM (Human liver microsome) working solution. Each of the mixtures was incubated at 37° C. for 10 minutes, and then mixed with 20 μL of NADPH cofactor, followed by incubation at 37° C. for additional 10 minutes. The reactions were terminated by adding 400 μL cold stop solution (200 ng/mL Tolbutamide and Labetalol in ACN). The samples are centrifuged at 4000 rpm for 20 minutes to precipitate protein. Next, 200 μL of the supernatant of each sample was transferred to 100 μL HPLC water and shaken for 10 minutes, and then analyzed by LC/MS/MS.

The nature of data set [2]: Plasma protein binding (PPB) by equilibrium dialysis. The data set is classed as in vitro ADME. The following applies: human and mouse plasma, 4 hours, 37° C., versus Ref-2. The protocol:
The binding of compounds Ref-2, 86, 97, 98 and 170 to human and mouse plasma were measured using equilibrium dialysis. A loading matrix was prepared by diluting of a 400 μM stock of each of the compounds in DMSO by the plasma matrix. To prepare the time zero (To) samples to be used for recovery determination, 50 μL of the loading matrix were transferred in triplicate to the sample collection plate, immediately matched with opposite blank buffer to obtain a final volume of 100 μL of 1:1 matrix/dialysis buffer (v/v) in each well, followed by the addition of 500 μL of stop solution (200 ng/mL of tolbutamide, 200 ng/mL of labetalol, and 50 ng/mL of metformin in acetonitrile) and then stored at 2-8° C. pending further processes along with other post-dialysis samples. To load the dialysis device, 150 μL of the loading matrix and 150 μL of the dialysis buffer were transferred to the donor side and the receiver side of each well, respectively. The dialysis plate was placed in a humidified incubator at 37° C. with 5% CO2 on a shaking platform that rotated slowly (about 100 rpm) for 4 hours, then 50 μL of samples were taken from both the buffer side and the matrix side, and transferred into new 96-well plates. Each sample was mixed with an equal volume of opposite blank buffer (or matrix) to reach a final volume of 100 μL, followed by the addition of 500 µL of stop solution. The mixture was vortexed and centrifuged at 4000 rpm for about 20 minutes, then […] of the supernatant of each sample was removed for LC-MS/MS analysis. The single blank samples were prepared by transferring 50 μL of blank matrix to a 96 well plate and adding 50 μL of blank PBS buffer to each well. The blank plasma must match the species of plasma used in the plasma side of the well. Then the matrix-matched samples were further processed by adding 500 μL of stop solution, following the same sample processing method as the dialysis samples. The % Unbound, % Bound and % Recovery were calculated using the following equations: […]
in which F is the analyte concentration or peak area ratio of analyte/internal standard on the buffer (receiver) side of the membrane, T is the analyte concentration or peak area ratio of analyte/internal standard on the matrix (donor) side of the membrane, and T0 is the analyte concentration or the peak area ratio of analyte/internal standard in the loading matrix sample at time zero.

The next data set relates to SARS-CoV-2. The data set can be described thus: Anti-SARS-CoV-2 activity in A549 cells expressing the human ACE2 receptor (inhibition of SARS-CoV-2 replication). As to conditions: Severe acute respiratory syndrome coronavirus 2, A549-ACE2, 24 h, read-out: Antiviral Activity (EC50). The data set is classed as cell-based.

Molecules are shown by their SMILES. Where a name gives a salt, the structure may show the parent alone.

For `CNC(=O)c1cc(Cl)cc([N+](=O)[O-])c1N[C@H]1CN(C(=O)c2cncc3cccnc23)CC[C@@H]1F` [Compound 170, 5-chloro-2-(((3S, 4S)-4-fluoro-1-(1,6-naphthyridine-8-carbonyl)piperidin-3-yl)amino)-N-methyl-3-nitrobenzamide], the 50% inhibitory concentration (IC50) on SARS-CoV-2 3CLpro was less than 100 nM. Besides, the “effect on different CYP isoforms” value in data set [1] is listed as “little effect on different CYP isoforms”. The “free PPB ratio in comparison with compound Ref-2” value (“free PPB ratio in comparison” below) in data set [2] was “better free PPB ratios”.

In the case of `CNC(=O)c1cc(Cl)cc([N+](=O)[O-])c1N[C@H]1CN(C(=O)c2cncc3ccn(C)c23)CCC1(F)F` [Compound 86, (S)-5-chloro-2-((4,4-difluoro-1-(1-methyl-1H-pyrrolo [3,2-c]pyridine-7-carbonyl)piperidin-3-yl)amino)-N-methyl-3-nitrobenzamide], the IC50 on SARS-CoV-2 3CLpro was less than 100 nM. Further, in data set [2], the “free PPB ratio in comparison” value is given as “better free PPB ratios”.

`CNC(=O)c1cc(Br)cc([N+](=O)[O-])c1N1CCC2(CCN(C(=O)c3cncc4ccccc34)C2)C1` (centres unmarked) [Compound 66, 5-bromo-2-(7-(isoquinoline-4-carbonyl)-2,7-diazaspiro[4.4]nonan-2-yl)-N-methyl-3-nitrobenzamide]: on SARS-CoV-2 3CLpro, the IC50 was 100 to 1000 nM. The concentration giving a half-maximal response (EC50) in the data set with SARS-CoV-2 was in the range of 100 to 1000 nM.

For `CNC1CN(C(=O)c2cc(Br)cc([N+](=O)[O-])c2N[C@H]2CN(C(=O)c3cncc4ccccc34)CCC2(F)F)C1` [Compound 95, (S)-(5-bromo-2-((4,4-difluoro-1-(isoquinoline-4-carbonyl)piperidin-3-yl)amino)-3-nitrophenyl)(3-(methylamino)azetidin-1-yl)methanone hydrochloride], at SARS-CoV-2 3CLpro, the IC50 was less than 100 nM. The EC50 in the data set with SARS-CoV-2 is less than 100 nM.

As for `CNC(=O)c1cc(Br)cc([N+](=O)[O-])c1N[C@@H]1CCN(C(=O)c2cncc3ccccc23)C1` [Compound 64, (R)-5-bromo-2-((1-(isoquinoline-4-carbonyl)pyrrolidin-3-yl)amino)-N-methyl-3-nitrobenzamide], on SARS-CoV-2 3CLpro, the concentration for half-maximal inhibition (IC50) was 100 to 1000 nM. In addition, the concentration for a half-maximal effect (EC50) with SARS-CoV-2 lay within 100 to 1000 nM.

In the case of `CNC(=O)c1cc(Br)cc([N+](=O)[O-])c1N[C@@H]1CCCC[C@@H]1NC(=O)C[C@@H]1CCNC1=O` [Compound 7, 5-bromo-N-methyl-3-nitro-2-(((1R, 2S)-2-(2-((S)-2-oxopyrrolidin-3-yl)acetamido)cyclohexyl)amino)benzamide], at SARS-CoV-2 3CLpro, the IC50 is 1000 to 10000 nM. The EC50 in the data set with SARS-CoV-2 was greater than 10000 nM.

Take `CNC(=O)c1cc(Cl)cc([N+](=O)[O-])c1N[C@H]1CN(C(=O)c2cncc3ccncc23)CCC1(F)F` [Compound 97, (S)-5-chloro-2-((4,4-difluoro-1-(2,6-naphthyridine-4-carbonyl)piperidin-3-yl)amino)-N-methyl-3-nitrobenzamide]: at SARS-CoV-2 3CLpro, the IC50 was less than 100 nM. The “effect on different CYP isoforms” value in data set [1] is “little effect on different CYP isoforms”. The “free PPB ratio in comparison” value in data set [2] is recorded as “better free PPB ratios”.

Consider `CC(C)C(Nc1c(C(=O)N[C@H](C)C(F)(F)F)cc(Br)cc1[N+](=O)[O-])C1CN(C(=O)c2cncc3ccccc23)C1` (stereo partly drawn) [Compound 124, 5-bromo-2-((1-(1-(isoquinoline-4-carbonyl)azetidin-3-yl)-2-methylpropyl)amino)-3-nitro-N-((R)-1,1,1-trifluoropropan-2-yl)benzamide], for which, on SARS-CoV-2 3CLpro, the IC50 is less than 100 nM. Further, the EC50 with SARS-CoV-2 was less than 100 nM.

Consider `O=C(N[C@H]1CCCC[C@H]1Nc1c(C(=O)N2CC(F)(F)C2)cc(Br)cc1[N+](=O)[O-])c1cncc2ccccc12` [Compound 14, N-((1S, 2R)-2-((4-bromo-2-(3,3-difluoroazetidine-1-carbonyl)-6-nitrophenyl)amino)cyclohexyl)isoquinoline-4-carboxamide], for which the concentration for half-maximal inhibition (IC50) at SARS-CoV-2 3CLpro lay in the range of 100 to 1000 nM. Moreover, the EC50 with SARS-CoV-2 lay in the range of 100 to 1000 nM.

For the compound `O=C(NCC(F)F)c1cc(Br)cc([N+](=O)[O-])c1N[C@@H]1CCCC[C@@H]1NC(=O)c1cncc2ccccc12` [Compound 61, N-((IS, 2R)-2-((4-bromo-2-((2,2-difluoroethyl)carbamoyl)-6-nitrophenyl)amino)cyclohexyl)isoquinoline-4-carboxamide], the IC50 on SARS-CoV-2 3CLpro is less than 100 nM. Moreover, in the data set with SARS-CoV-2, the half-maximal effective concentration (EC50) is less than 100 nM.

For `O=C(N[C@@H]1CCOC1)c1cc(Cl)cc([N+](=O)[O-])c1N[C@H]1CN(C(=O)c2cncc3ccccc23)CCC1(F)F` [Compound 142, 5-chloro-2-(((S)-4,4-difluoro-1-(isoquinoline-4-carbonyl)piperidin-3-yl)amino)-3-nitro-N-((R)-tetrahydrofuran-3-yl)benzamide], the IC50 at SARS-CoV-2 3CLpro is less than 100 nM. Also, in the data set with SARS-CoV-2, the half-maximal effective concentration (EC50) was less than 100 nM.

`CNC(=O)c1cc(Br)cc([N+](=O)[O-])c1N[C@@H]1CCCC[C@@H]1NC(=O)c1cncc2ccc(F)cc12` [Compound 9, N-((1S, 2R)-2-((4-bromo-2-(methylcarbamoyl)-6-nitrophenyl)amino)cyclohexyl)-6-fluoroisoquinoline-4-carboxamide]: the half-maximal inhibitory concentration (IC50) at SARS-CoV-2 3CLpro is less than 100 nM. For the same compound, the EC50 with SARS-CoV-2 lay in the range of 100 to 1000 nM.

For the compound `COC1CN(C(=O)c2cc(Cl)cc([N+](=O)[O-])c2N[C@H]2CN(C(=O)c3cncc4ccccc34)CCC2(F)F)C1` [Compound 44, (S)-(5-chloro-2-((4,4-difluoro-1-(isoquinoline-4-carbonyl)piperidin-3-yl)amino)-3-nitrophenyl)(3-methoxyazetidin-1-yl)methanone], the half-inhibitory concentration (IC50) on SARS-CoV-2 3CLpro was less than 100 nM. The EC50 with SARS-CoV-2 is less than 100 nM.

Turning to `O=C(NC1CC1)c1cc(Br)cc([N+](=O)[O-])c1N[C@@H]1COCC[C@@H]1NC(=O)c1cncc2ccccc12` [Compound 133, N-((3S, 4S)-3-((4-bromo-2-(cyclopropylcarbamoyl)-6-nitrophenyl)amino)tetrahydro-2H-pyran-4-yl)isoquinoline-4-carboxamide], the IC50 at SARS-CoV-2 3CLpro was less than 100 nM. For the same compound, in the data set on SARS-CoV-2, the 50% effective concentration (EC50) is less than 100 nM.

Regarding `O=C(NCC(F)(F)F)c1cc(Cl)cc([N+](=O)[O-])c1N[C@H]1CN(C(=O)c2cncc3ccccc23)CCC1(F)F` [Compound 91, (S)-5-chloro-2-((4,4-difluoro-1-(isoquinoline-4-carbonyl)piperidin-3-yl)amino)-3-nitro-N-(2,2,2-trifluoroethyl) benzamide], on SARS-CoV-2 3CLpro, the half-maximal inhibitory concentration (IC50) is less than 100 nM. Further, the EC50 with SARS-CoV-2 was less than 100 nM.

For `O=C(NC1CC1)c1cc(Br)cc([N+](=O)[O-])c1N[C@@H]1CCCN(C(=O)c2cncc3ccccc23)C1` [Compound 125, (R)-5-bromo-N-cyclopropyl-2-((1-(isoquinoline-4-carbonyl)piperidin-3-yl)amino)-3-nitrobenzamide], the 50% inhibitory concentration (IC50) at SARS-CoV-2 3CLpro was less than 100 nM. Moreover, the EC50 in the data set with SARS-CoV-2 was less than 100 nM.

Turning to `CNC(=O)c1cc(Cl)cc([N+](=O)[O-])c1N[C@H]1CN(C(=O)c2cncc3ccccc23)CCC1(F)F` [Compound 92, (S)-5-chloro-2-((4,4-difluoro-1-(isoquinoline-4-carbonyl)piperidin-3-yl)amino)-N-methyl-3-nitrobenzamide], the half-inhibitory concentration (IC50) at SARS-CoV-2 3CLpro was less than 100 nM. In the data set on SARS-CoV-2, the half-maximal effective concentration (EC50) was less than 100 nM.

Take `CNC(=O)c1cc(Br)cc([N+](=O)[O-])c1N[C@@H]1CCCC[C@@H]1NC(=O)c1cncc(C(F)(F)F)c1` [Compound 72, N-((1S, 2R)-2 ((4-bromo-2-(methylcarbamoyl)-6-nitrophenyl)amino)cyclohexyl)-5-(trifluoromethyl)nicotinamide]: the 50% inhibitory concentration (IC50) on SARS-CoV-2 3CLpro was 1000 to 10000 nM. In addition, in the data set on SARS-CoV-2, the EC50 was greater than 10000 nM.
